Test results: PubChem BioAssay AID248 (DTP/NCI, 2004)
Where “and” joins values, the source holds several entries; their conditions need not be identical. Equal values may be shown once. Inconclusive results and toxic doses are left out. No stated cut-off is given here; in the data, active means T/C of 150% or more; inactive means T/C below 125%.

System: L1210 leukemia ip in BDF1 mice, survival T/C
Experiment: NCI In Vivo Anticancer Drug Screen. Data for tumor model L1210 Leukemia (intraperitoneal) in B6D2F1 (BDF1) mice
Conditions: endpoint: mean survival time, higher = longer survival
In short: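 Value reflects the ratio of survival in compound-treated mice to survival in vehicle-treated controls, with both groups carrying the same transplanted tumor.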

[1] = dose: 100.0 mg/kg/injection, schedule: Q04DX003 (ip), vehicle: Klucel (hydroxypropylcellulose) (HPC)
[2] = dose: 100.0 mg/kg/injection, schedule: Q01DX005 (ip), vehicle: saline
[3] = dose: 200.0 mg/kg/injection, schedule: Q01DX005 (ip), vehicle: saline
[4] = dose: 25.0 mg/kg/injection, schedule: Q01DX009 (ip), vehicle: saline with Tween-80
[5] = dose: 50.0 mg/kg/injection, schedule: Q01DX009 (ip), vehicle: saline with Tween-80
[6] = dose: 100.0 mg/kg/injection, schedule: Q01DX009 (ip), vehicle: saline with Tween-80
[7] = dose: 200.0 mg/kg/injection, schedule: Q01DX009 (ip), vehicle: saline with Tween-80
[8] = dose: 100.0 mg/kg/injection, schedule: Q04DX003 (ip), vehicle: saline
[9] = dose: 200.0 mg/kg/injection, schedule: Q04DX003 (ip), vehicle: saline
[10] = dose: 100.0 mg/kg/injection, schedule: Q01DX009 (ip), vehicle: Klucel (hydroxypropylcellulose) (HPC)
[11] = dose: 200.0 mg/kg/injection, schedule: Q01DX009 (ip), vehicle: Klucel (hydroxypropylcellulose) (HPC)
[12] = dose: 100.0 mg/kg/injection, schedule: Q04DX002 (ip), vehicle: saline
[13] = dose: 200.0 mg/kg/injection, schedule: Q04DX002 (ip), vehicle: saline
[14] = dose: 400.0 mg/kg/injection, schedule: Q04DX002 (ip), vehicle: saline

Measured: T/C

O=C(OCCCCCOC(=O)c1ccccc1O)c1ccccc1O
inactive: dose: 100.0 mg/kg/injection, schedule: Q01DX001 (ip), vehicle: other 91 % of control | [1] 92 % of control | dose: 200.0 mg/kg/injection, schedule: Q01DX001 (ip), vehicle: other 88 % of control | dose: 200.0 mg/kg/injection, schedule: Q04DX003 (ip), vehicle: Klucel (hydroxypropylcellulose) (HPC) 91 % of control | dose: 400.0 mg/kg/injection, schedule: Q04DX003 (ip), vehicle: Klucel (hydroxypropylcellulose) (HPC) 89 % of control

CSc1nc(Cl)c2ncn(C3C=CC(O)C(CO)O3)c2n1 (stereo not drawn)
inactive: [2] 95 % of control | [3] 92 % of control

CCCC[n+]1[nH]oc(=O)c1C(=O)[O-]
inactive: [1] 98 % of control

O=C1CCCCCCCCCCCCCCO1
inactive: dose: 100.0 mg/kg/injection, schedule: Q04DX002 (ip), vehicle: Klucel (hydroxypropylcellulose) (HPC) 96 % of control | dose: 200.0 mg/kg/injection, schedule: Q04DX002 (ip), vehicle: Klucel (hydroxypropylcellulose) (HPC) 90 % of control | dose: 400.0 mg/kg/injection, schedule: Q04DX002 (ip), vehicle: Klucel (hydroxypropylcellulose) (HPC) 93 % of control

COC1(c2ccc(Br)cc2)OC1(C)C (stereo not drawn)
inactive: dose: 25.0 mg/kg/injection, schedule: Q01DX009 (ip), vehicle: water 95 % of control | dose: 50.0 mg/kg/injection, schedule: Q01DX009 (ip), vehicle: water 101 % of control | dose: 100.0 mg/kg/injection, schedule: Q01DX009 (ip), vehicle: water 106 % of control | dose: 200.0 mg/kg/injection, schedule: Q01DX009 (ip), vehicle: water 107 % of control | dose: 400.0 mg/kg/injection, schedule: Q01DX009 (ip), vehicle: water 101 % of control

COC1C(c2ccccc2)NC(=O)C(Br)(C#N)C1c1ccccc1 (stereo not drawn)
inactive: dose: 12.5 mg/kg/injection, schedule: Q01DX009 (ip), vehicle: saline with Tween-80 86 % of control | [4] 86 % of control | [5] 86 % of control

COc1ccccc1OC(=O)CCl
inactive: [4] 90 % of control | [5] 93 % of control | [6] 93 % of control

NC(=O)NC1OC(COC(=O)c2ccccc2)C(OC(=O)c2ccccc2)C1OC(=O)c1ccccc1 (stereo not drawn)
inactive: [6] 89 % of control | dose: 100.0 mg/kg/injection, schedule: Q04DX003 (ip), vehicle: saline with Tween-80 92 % of control | [7] 90 % of control | dose: 200.0 mg/kg/injection, schedule: Q04DX003 (ip), vehicle: saline with Tween-80 94 % of control | dose: 400.0 mg/kg/injection, schedule: Q01DX009 (ip), vehicle: saline with Tween-80 89 % of control | dose: 400.0 mg/kg/injection, schedule: Q04DX003 (ip), vehicle: saline with Tween-80 94 % of control

O/N=C(/CBr)c1ccccc1
inactive: dose: 12.5 mg/kg/injection, schedule: Q04DX002 (ip), vehicle: gum acacia 109 % of control | dose: 25.0 mg/kg/injection, schedule: Q04DX002 (ip), vehicle: gum acacia 87 % of control | dose: 50.0 mg/kg/injection, schedule: Q04DX002 (ip), vehicle: gum acacia 102 % of control

OCC1OC(n2ccc3c([Se]Cc4ccccc4)ncnc32)C(O)C1O (stereo not drawn)
inactive: dose: 0.78 mg/kg/injection, schedule: Q01DX009 (ip), vehicle: saline 101 % of control | dose: 1.56 mg/kg/injection, schedule: Q01DX009 (ip), vehicle: saline 105 % of control | dose: 3.12 mg/kg/injection, schedule: Q01DX009 (ip), vehicle: saline 109 % of control | dose: 6.25 mg/kg/injection, schedule: Q01DX009 (ip), vehicle: saline 86 % of control | dose: 12.5 mg/kg/injection, schedule: Q01DX005 (ip), vehicle: saline 100 % of control | dose: 25.0 mg/kg/injection, schedule: Q01DX005 (ip), vehicle: saline 101 % of control

NCC(O)c1ccc(O)cc1 (stereo not drawn)
inactive: dose: 50.0 mg/kg/injection, schedule: Q04DX003 (ip), vehicle: saline 101 % of control | dose: 100.0 mg/kg/injection, schedule: Q01DX001 (ip), vehicle: saline 93 % of control | [8] 97 % of control | dose: 200.0 mg/kg/injection, schedule: Q01DX001 (ip), vehicle: saline 93 % of control | [9] 98 % of control | dose: 400.0 mg/kg/injection, schedule: Q01DX001 (ip), vehicle: saline 101 % of control

CCN(CC)C(=O)CCc1ccccc1
inactive: [6] 108 % of control | [7] 100 % of control

O=C(Nc1ccc(C(=O)CCl)cc1)Nc1ccc(C(=O)CCl)cc1
inactive: [2] 100 % of control | [8] 101 % of control | [3] 102 % of control | [9] 104 % of control | dose: 400.0 mg/kg/injection, schedule: Q01DX005 (ip), vehicle: saline 103 % of control | dose: 400.0 mg/kg/injection, schedule: Q04DX003 (ip), vehicle: saline 93 % of control

COc1ccc(C(=O)Nc2ccccc2)cc1NC(=O)Nc1ccccc1C(F)(F)F
inactive: [10] 92 % of control | [11] 101 % of control | dose: 400.0 mg/kg/injection, schedule: Q01DX009 (ip), vehicle: Klucel (hydroxypropylcellulose) (HPC) 95 % of control

COc1ccc(OC)c(CC(C)=O)c1
inactive: dose: 100.0 mg/kg/injection, schedule: Q01DX001 (ip), vehicle: carboxymethylcellulose (CMC) 93 % of control | dose: 200.0 mg/kg/injection, schedule: Q01DX001 (ip), vehicle: carboxymethylcellulose (CMC) 101 % of control | dose: 400.0 mg/kg/injection, schedule: Q01DX001 (ip), vehicle: carboxymethylcellulose (CMC) 95 % of control

O=C(Cc1ccccc1)Nc1ccc(Cl)cc1C(=O)c1ccccc1
inactive: [12] 101 % of control | [13] 93 % of control | [14] 90 % of control

CNC(=O)Nc1c(O)nc(N)[nH]c1=O
inactive: dose: 37.5 mg/kg/injection, schedule: Q01DX001 (ip), vehicle: saline 97 % of control | dose: 75.0 mg/kg/injection, schedule: Q01DX001 (ip), vehicle: saline 103 % of control | dose: 150.0 mg/kg/injection, schedule: Q01DX001 (ip), vehicle: saline 105 % of control

Cc1cc2c(C(C)C)c(O)c(O)c(C=O)c2c(O)c1-c1c(C)cc2c(C(C)C)c(O)c(O)c(C=O)c2c1O
inactive: dose: 0.25 mg/kg/injection, schedule: Q01DX009 (ip), vehicle: saline 105 % of control | dose: 0.5 mg/kg/injection, schedule: Q01DX009 (ip), vehicle: saline 110 % of control | dose: 1.0 mg/kg/injection, schedule: Q01DX009 (ip), vehicle: saline 106 % of control | dose: 2.0 mg/kg/injection, schedule: Q01DX009 (ip), vehicle: saline 106 % of control | dose: 4.0 mg/kg/injection, schedule: Q01DX009 (ip), vehicle: saline 108 % of control | dose: 8.0 mg/kg/injection, schedule: Q01DX009 (ip), vehicle: saline 101 % of control

[Co].[NH-]C(=O)c1ccccn1.[NH2-].[NH2-].[NH2-].[NH2-].[NH2-]
inactive: [12] 118 % of control | [13] 101 % of control | [14] 108 % of control

O=C(NC(CS)C(=O)O)OCc1ccccc1 (stereo not drawn)
inactive: dose: 25.0 mg/kg/injection, schedule: Q04DX003 (ip), vehicle: Klucel (hydroxypropylcellulose) (HPC) 97 % of control | dose: 50.0 mg/kg/injection, schedule: Q01DX009 (ip), vehicle: Klucel (hydroxypropylcellulose) (HPC) 101 % of control | dose: 50.0 mg/kg/injection, schedule: Q04DX003 (ip), vehicle: Klucel (hydroxypropylcellulose) (HPC) 98 % of control | [10] 101 % of control | [1] 106 % of control and 113 % of control | [11] 98 % of control
